Where “and” joins values, the source holds several entries; their conditions need not be identical. Identical values can stand only once. Inconclusive results and toxic doses are left out. Rule as the data show it: active = T/C of 150% or more; inactive = T/C below 125%.
Tested on: L1210 leukemia ip in BDF1 mice, survival T/C
Assay: NCI In Vivo Anticancer Drug Screen. Data for tumor model L1210 Leukemia (intraperitoneal) in B6D2F1 (BDF1) mice
Conditions: endpoint: mean survival time, higher = longer survival
How it was run: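 Tumor cells were implanted, animals were treated, and survival was followed. The result divides the treated measurement by the vehicle-control measurement.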

[1] = dose: 100.0 mg/kg/injection, schedule: Q01DX009 (ip), vehicle: Klucel (hydroxypropylcellulose) (HPC)
[2] = dose: 100.0 mg/kg/injection, schedule: Q04DX003 (ip), vehicle: Klucel (hydroxypropylcellulose) (HPC)
[3] = dose: 200.0 mg/kg/injection, schedule: Q01DX009 (ip), vehicle: Klucel (hydroxypropylcellulose) (HPC)
[4] = dose: 200.0 mg/kg/injection, schedule: Q04DX003 (ip), vehicle: Klucel (hydroxypropylcellulose) (HPC)
[5] = dose: 400.0 mg/kg/injection, schedule: Q01DX009 (ip), vehicle: Klucel (hydroxypropylcellulose) (HPC)
[6] = dose: 400.0 mg/kg/injection, schedule: Q04DX003 (ip), vehicle: Klucel (hydroxypropylcellulose) (HPC)
[7] = dose: 100.0 mg/kg/injection, schedule: Q01DX001 (ip), vehicle: saline
[8] = dose: 200.0 mg/kg/injection, schedule: Q01DX001 (ip), vehicle: saline
[9] = dose: 100.0 mg/kg/injection, schedule: Q01DX009 (ip), vehicle: saline with Tween-80
[10] = dose: 200.0 mg/kg/injection, schedule: Q01DX009 (ip), vehicle: saline with Tween-80
[11] = dose: 400.0 mg/kg/injection, schedule: Q01DX009 (ip), vehicle: saline with Tween-80
[12] = dose: 400.0 mg/kg/injection, schedule: Q01DX001 (ip), vehicle: saline

Measured: T/C

CC(=O)CCC(C)(C)[N+](=O)[O-]
inactive: dose: 75.0 mg/kg/injection, schedule: Q01DX009 (ip), vehicle: acetone 97 % of control | dose: 150.0 mg/kg/injection, schedule: Q01DX009 (ip), vehicle: acetone 94 % of control | dose: 300.0 mg/kg/injection, schedule: Q01DX009 (ip), vehicle: acetone 95 % of control

CCCCSC1=NCCCS1
inactive: dose: 75.0 mg/kg/injection, schedule: Q01DX001 (ip), vehicle: other 104 % of control | dose: 150.0 mg/kg/injection, schedule: Q01DX001 (ip), vehicle: other 111 % of control | dose: 300.0 mg/kg/injection, schedule: Q01DX001 (ip), vehicle: other 102 % of control

O=c1[nH][nH]c(=O)c2cc3ccccc3cc12
inactive: dose: 62.5 mg/kg/injection, schedule: Q01DX009 (ip), vehicle: Klucel (hydroxypropylcellulose) (HPC) 98 % of control | dose: 125.0 mg/kg/injection, schedule: Q01DX009 (ip), vehicle: Klucel (hydroxypropylcellulose) (HPC) 105 % of control

CCc1ccc(Nc2c([N+](=O)[O-])cc(C)cc2[N+](=O)[O-])cc1
inactive: [1] 97 % of control | [2] 103 % of control | [3] 105 % of control | [4] 108 % of control | [5] 113 % of control | [6] 102 % of control

CN1CCCC1c1cccnc1 (stereo not drawn)
inactive: dose: 0.5 mg/kg/injection, schedule: Q01DX009 (ip), vehicle: saline 97 % of control | dose: 0.5 mg/kg/injection, schedule: Q01DX Z (ip), vehicle: saline 97 % of control | dose: 1.0 mg/kg/injection, schedule: Q01DX009 (ip), vehicle: saline 95 % of control and 87 % of control | dose: 1.0 mg/kg/injection, schedule: Q01DX Z (ip), vehicle: saline 94 % of control | dose: 2.0 mg/kg/injection, schedule: Q01DX Z (ip), vehicle: saline 95 % of control

CNC(=O)Nc1cccc2c(=O)[nH][nH]c(=O)c12
inactive: [1] 114 % of control | [2] 97 % of control | [3] 100 % of control | [4] 108 % of control | [5] 86 % of control | [6] 91 % of control

N#CCCCSC(=N)N
inactive: [7] 106 % of control | [8] 104 % of control

CCCc1cc(CCC)nc(NNc2nc(CCC)cc(CCC)n2)n1
inactive: [9] 104 % of control | [10] 96 % of control | [11] 110 % of control

c1cc[c]([Sn]([O]B([O][Sn]([c]2ccccc2)([c]2ccccc2)[c]2ccccc2)[O][Sn]([c]2ccccc2)([c]2ccccc2)[c]2ccccc2)([c]2ccccc2)[c]2ccccc2)cc1
inactive: dose: 5.0 mg/kg/injection, schedule: Q04DX002 (ip), vehicle: saline with Tween-80 101 % of control | dose: 10.0 mg/kg/injection, schedule: Q04DX002 (ip), vehicle: saline with Tween-80 104 % of control | dose: 20.0 mg/kg/injection, schedule: Q04DX002 (ip), vehicle: saline with Tween-80 101 % of control

CC(C)CC(N)C(=O)NC1(C(=O)O)C2CC3CC(C2)CC1C3 (stereo not drawn)
inactive: dose: 17.5 mg/kg/injection, schedule: Q01DX009 (ip), vehicle: Klucel (hydroxypropylcellulose) (HPC) 101 % of control | dose: 35.0 mg/kg/injection, schedule: Q01DX009 (ip), vehicle: Klucel (hydroxypropylcellulose) (HPC) 96 % of control | dose: 70.0 mg/kg/injection, schedule: Q01DX009 (ip), vehicle: Klucel (hydroxypropylcellulose) (HPC) 97 % of control | dose: 75.0 mg/kg/injection, schedule: Q01DX009 (ip), vehicle: Klucel (hydroxypropylcellulose) (HPC) 103 % of control | dose: 150.0 mg/kg/injection, schedule: Q01DX009 (ip), vehicle: Klucel (hydroxypropylcellulose) (HPC) 97 % of control | dose: 300.0 mg/kg/injection, schedule: Q01DX009 (ip), vehicle: Klucel (hydroxypropylcellulose) (HPC) 92 % of control

C=C(C/C(=C/S(C)=O)c1ccccc1)c1ccccc1 (stereo not drawn)
inactive: dose: 75.0 mg/kg/injection, schedule: Q01DX001 (ip), vehicle: saline 97 % of control | dose: 150.0 mg/kg/injection, schedule: Q01DX001 (ip), vehicle: saline 96 % of control | dose: 300.0 mg/kg/injection, schedule: Q01DX001 (ip), vehicle: saline 91 % of control

O=C(O)c1csnn1
inactive: [7] 102 % of control | [8] 97 % of control | [12] 103 % of control

Cc1ccc(C)c2c1c1ccccc1n2N=O
inactive: dose: 50.0 mg/kg/injection, schedule: Q01DX001 (ip), vehicle: saline 97 % of control | [7] 100 % of control | [8] 100 % of control | [12] 114 % of control

COc1cccc2c1C(=O)c1c(O)c3c(c(O)c1C2=O)C[C@@](O)(/C(C)=N/NS(C)(=O)=O)C[C@@H]3OC1CC(N)C(O)C(C)O1 (stereo partly drawn)
inactive: dose: 0.25 mg/kg/injection, schedule: Q04DX003 (ip), vehicle: water 103 % of control | dose: 0.5 mg/kg/injection, schedule: Q04DX003 (ip), vehicle: water 103 % of control | dose: 1.0 mg/kg/injection, schedule: Q04DX003 (ip), vehicle: water 103 % of control | dose: 2.0 mg/kg/injection, schedule: Q04DX003 (ip), vehicle: water 105 % of control | dose: 4.0 mg/kg/injection, schedule: Q01DX009 (ip), vehicle: water 105 % of control | dose: 4.0 mg/kg/injection, schedule: Q04DX003 (ip), vehicle: water 107 % of control | dose: 8.0 mg/kg/injection, schedule: Q01DX009 (ip), vehicle: water 113 % of control | dose: 8.0 mg/kg/injection, schedule: Q04DX003 (ip), vehicle: water 101 % of control and 113 % of control | dose: 16.0 mg/kg/injection, schedule: Q01DX009 (ip), vehicle: water 121 % of control | dose: 16.0 mg/kg/injection, schedule: Q04DX003 (ip), vehicle: water 104 % of control and 115 % of control | dose: 64.0 mg/kg/injection, schedule: Q01DX009 (ip), vehicle: water 97 % of control

O=c1[nH]c(Cc2ccc([N+](=O)[O-])cc2)c(Br)c(=O)[nH]1
inactive: dose: 50.0 mg/kg/injection, schedule: Q01DX001 (ip), vehicle: Klucel (hydroxypropylcellulose) (HPC) 103 % of control | dose: 100.0 mg/kg/injection, schedule: Q01DX001 (ip), vehicle: Klucel (hydroxypropylcellulose) (HPC) 92 % of control | dose: 200.0 mg/kg/injection, schedule: Q01DX001 (ip), vehicle: Klucel (hydroxypropylcellulose) (HPC) 92 % of control

C[N+]1(C)CCCC1
inactive: dose: 6.25 mg/kg/injection, schedule: Q01DX009 (ip), vehicle: saline 103 % of control | dose: 12.5 mg/kg/injection, schedule: Q01DX009 (ip), vehicle: saline 102 % of control | dose: 12.5 mg/kg/injection, schedule: Q04DX003 (ip), vehicle: saline 86 % of control | dose: 25.0 mg/kg/injection, schedule: Q01DX009 (ip), vehicle: saline 109 % of control | dose: 25.0 mg/kg/injection, schedule: Q04DX003 (ip), vehicle: saline 91 % of control | dose: 50.0 mg/kg/injection, schedule: Q04DX003 (ip), vehicle: saline 95 % of control

CCC#CC(=O)OCCCCC
inactive: dose: 100.0 mg/kg/injection, schedule: Q04DX002 (ip), vehicle: saline 105 % of control | dose: 200.0 mg/kg/injection, schedule: Q04DX002 (ip), vehicle: saline 102 % of control | dose: 400.0 mg/kg/injection, schedule: Q04DX002 (ip), vehicle: saline 108 % of control

O=C(O)CNC(=O)C(Br)Cc1ccccc1 (stereo not drawn)
inactive: [9] 96 % of control | [10] 89 % of control | [11] 89 % of control

O=c1nc(NO)ccn1C1CCCCO1 (stereo not drawn)
inactive: dose: 100.0 mg/kg/injection, schedule: Q01DX001 (ip), vehicle: carboxymethylcellulose (CMC) 95 % of control | dose: 200.0 mg/kg/injection, schedule: Q01DX001 (ip), vehicle: carboxymethylcellulose (CMC) 95 % of control | dose: 400.0 mg/kg/injection, schedule: Q01DX001 (ip), vehicle: carboxymethylcellulose (CMC) 95 % of control

Reference: PubChem BioAssay AID248 (DTP/NCI, 2004)
